Counter-ions that a name gives are not always drawn.
Legend:
[1] = biological target: T1, Neuraminidase (from Clostridium perfringens, Type V) immobilized on magnetic beads (NA-MBs) (Clostridium perfringens, UniProt A0A0H2YQR1); assay type: biochemical; conditions: 40 μM MUNANA, 37 °C, 3 min
[2] = biological target: T1, Neuraminidase (from Clostridium perfringens, Type V) immobilized on magnetic beads (NA-MBs); assay type: binding; conditions: 5.0 mg/mL ethyl acetate extract fraction of Flos Lonicerae, 37 °C, 1 h
[3] = biological target: T1, Neuraminidase (from Clostridium perfringens, Type V) immobilized on magnetic beads (NA-MBs); assay: biochemical; conditions: for inhibition at 50 µM: 0.05 h, read-out: Inhibitory ratio (%)
NA [4] = conditions: cited from earlier work; for binder / non-binder for NA: known active/inactive compounds for NA
[5] = biological target: T1, Neuraminidase (from Clostridium perfringens, Type V) immobilized on magnetic beads (NA-MBs); assay type: biochemical
NA [6] = conditions: read-out: IC50, literature reported value; cited from earlier work

T1 sequence (A0A0H2YQR1 42-694 limits assumed): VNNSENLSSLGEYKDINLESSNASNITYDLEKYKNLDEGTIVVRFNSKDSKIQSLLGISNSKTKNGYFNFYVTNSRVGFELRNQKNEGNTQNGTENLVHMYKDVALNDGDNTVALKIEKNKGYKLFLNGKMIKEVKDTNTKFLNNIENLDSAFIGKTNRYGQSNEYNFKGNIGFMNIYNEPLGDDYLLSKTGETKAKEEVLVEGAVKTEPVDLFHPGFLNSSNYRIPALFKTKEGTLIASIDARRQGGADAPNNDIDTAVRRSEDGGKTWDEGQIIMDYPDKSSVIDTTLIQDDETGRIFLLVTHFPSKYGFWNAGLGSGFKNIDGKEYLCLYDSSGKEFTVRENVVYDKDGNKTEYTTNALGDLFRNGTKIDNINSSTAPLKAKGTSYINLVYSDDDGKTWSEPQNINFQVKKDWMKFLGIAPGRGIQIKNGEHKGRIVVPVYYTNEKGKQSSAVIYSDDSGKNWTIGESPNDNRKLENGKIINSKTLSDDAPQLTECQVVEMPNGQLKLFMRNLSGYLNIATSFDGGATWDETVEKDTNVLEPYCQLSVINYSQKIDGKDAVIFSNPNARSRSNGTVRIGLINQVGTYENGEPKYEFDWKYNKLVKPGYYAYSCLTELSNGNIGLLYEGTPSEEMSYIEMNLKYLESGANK

O=C(/C=C/c1ccc(O)c(O)c1)OC1CC(O)(C(=O)O)CC(O)C1OC(=O)/C=C/c1ccc(O)c(O)c1 (centres unmarked) [3,4-di-O-caffeoylquinic acid]
IC50 [1]: 68.3 ± 3.1 µM
Retention on NA-MBs in ligand fishing [2]: retained until the final elution steps

O=C(/C=C/c1ccc(O)c(O)c1)OC1CC(O)(C(=O)O)CC(OC(=O)/C=C/c2ccc(O)c(O)c2)C1O (centres unmarked) [3,5-di-O-caffeoylquinic acid]
IC50 [1]: 61.2 ± 1.5 µM
Retention on NA-MBs in ligand fishing [2]: retained until the final elution steps

O=C1CCC[C@@H]2[C@H]3CCC[N@+]4([O-])CCC[C@@H](CN12)[C@@H]34 [Ammothamnine]
Inhibitory ratio (%) ([3]; 50 μM tested compound, 40 μM MUNANA, 5 mg NA-MBs, 37 °C, 3 min, 3% DMSO): < 1%

Nc1cc[nH]c(=O)n1 [Cytosine]
inhibition at 50 µM [3]: < 1%

COc1ccc2c3c1O[C@H]1C[C@@H](O)C=C[C@@]31CCN(C)C2 [Galantamine, reference compound]
inhibition at 50 µM [3]: < 1%

Nc1nc2c(ncn2[C@@H]2O[C@H](CO)[C@@H](O)[C@H]2O)c(=O)[nH]1 [Guanosine]
inhibition at 50 µM [3]: < 1%

O=c1c(O[C@@H]2O[C@H](CO)[C@H](O)[C@H](O)[C@H]2O)c(-c2ccc(O)c(O)c2)oc2cc(O)cc(O)c12 [Hyperoside]
inhibition at 50 µM [3]: 32.3 ± 2.7%

COc1cc(-c2oc3cc(O)cc(O)c3c(=O)c2O)ccc1O [Isorhamnetin]
inhibition at 50 µM [3]: 46.8 ± 5.8%

COc1ccc(-c2oc3cc(O)cc(O)c3c(=O)c2O)cc1 [Kaempferide]
inhibition at 50 µM [3]: 43.6 ± 4.9%

O=c1c(O)c(-c2ccc(O)cc2)oc2cc(O)cc(O)c12 [Kaempferol]
inhibition at 50 µM [3]: 51.2 ± 6.1%

O[C@H]1[C@H]2c3cc4c(cc3CN3CCC(=C[C@@H]1O)[C@H]23)OCO4 [Lycorine]
inhibition at 50 µM [3]: < 1%
binder / non-binder for NA (NA [4]): reported non-binders

CC(=O)N[C@H]1[C@H]([C@H](O)[C@H](O)CO)O[C@@](Oc2ccc3c(C)cc(=O)oc3c2)(C(=O)O)C[C@@H]1O [MUNANA, 2′-(4-methylumbelliferyl)-α-D-N-acetylneuraminic acid sodium salt hydrate]
Km [5]: 46.5 ± 3.68 µM
Km (NA [4]; substrate on NA-immobilized capillary microreactor): 137 ± 10.8 µM

CCOC(=O)C1=C[C@@H](OC(CC)CC)[C@H](NC(C)=O)[C@@H](N)C1 [Oseltamivir]
inhibition at 50 µM [3]: 74.9 ± 3.5%
binder / non-binder for NA (NA [4]): known binder

O=C1CCC[C@@H]2[C@H]3CCC[N+]4([O-])CCC[C@@H](CN12)[C@@H]34 (some centres unmarked) [Oxymatrine]
inhibition at 50 µM [3]: < 1%

O=c1c(O)c(-c2ccc(O)c(O)c2)oc2cc(O)cc(O)c12 [Quercetin]
inhibition at 50 µM [3]: 48.1 ± 3.4%

Cc1c[nH]c(=O)[nH]c1=O [Thymine]
inhibition at 50 µM [3]: < 1%

O=c1cc(-c2ccc(O)c(O)c2)oc2cc(O[C@@H]3O[C@H](CO)[C@@H](O)[C@H](O)[C@H]3O)cc(O)c12 [luteolin-7-O-β-D-glucoside]
IC50 [1]: 76.5 ± 3.9 µM
Retention on NA-MBs in ligand fishing [2]: retained until the final elution steps

O=c1cc(-c2ccc(O)c(O)c2)oc2cc(O)cc(O)c12 [luteolin]
Retention on NA-MBs in ligand fishing [2]: retained until the final elution steps

O=C1CCC[C@@H]2[C@H]3CCCN4CCC[C@@H](CN12)[C@@H]34 [matrine]
binder / non-binder for NA (NA [4]): reported non-binders

Reference: publication PMC6261295 (Journal of chromatography. A, 2018)
